Assay results as given in ChEMBL document CHEMBL1138541, “Design, synthesis, and evaluation of benzophenone derivatives as novel acetylcholinesterase inhibitors” (Eur J Med Chem, 2009).

Columns and labels:
[1] = molecular target: Acetylcholinesterase (Homo sapiens, UniProt P22303); test: Inhibition of human recombinant AChE by Ellman's method
[2] = molecular target: Cholinesterase (Homo sapiens, UniProt P06276); test: Inhibition of human serum BChE by Ellman's method
Chain of Cholinesterase (P06276 whole entry): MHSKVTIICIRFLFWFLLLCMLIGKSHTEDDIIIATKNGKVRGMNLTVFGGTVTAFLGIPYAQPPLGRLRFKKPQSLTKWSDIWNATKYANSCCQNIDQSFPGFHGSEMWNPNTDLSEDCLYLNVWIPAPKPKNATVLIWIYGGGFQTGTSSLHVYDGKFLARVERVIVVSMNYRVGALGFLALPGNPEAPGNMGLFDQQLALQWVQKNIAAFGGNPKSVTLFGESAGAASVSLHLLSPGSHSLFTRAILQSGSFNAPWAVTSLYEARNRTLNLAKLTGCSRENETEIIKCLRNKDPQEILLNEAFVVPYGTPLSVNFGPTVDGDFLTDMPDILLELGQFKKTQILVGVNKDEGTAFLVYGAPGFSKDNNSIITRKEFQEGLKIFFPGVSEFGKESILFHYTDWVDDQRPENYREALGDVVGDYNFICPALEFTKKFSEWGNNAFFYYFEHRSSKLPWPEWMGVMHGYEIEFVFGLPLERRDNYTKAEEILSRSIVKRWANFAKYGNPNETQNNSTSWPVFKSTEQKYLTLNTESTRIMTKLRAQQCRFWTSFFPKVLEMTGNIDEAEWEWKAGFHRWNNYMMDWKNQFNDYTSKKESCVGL

Chain of Acetylcholinesterase (P22303 whole entry): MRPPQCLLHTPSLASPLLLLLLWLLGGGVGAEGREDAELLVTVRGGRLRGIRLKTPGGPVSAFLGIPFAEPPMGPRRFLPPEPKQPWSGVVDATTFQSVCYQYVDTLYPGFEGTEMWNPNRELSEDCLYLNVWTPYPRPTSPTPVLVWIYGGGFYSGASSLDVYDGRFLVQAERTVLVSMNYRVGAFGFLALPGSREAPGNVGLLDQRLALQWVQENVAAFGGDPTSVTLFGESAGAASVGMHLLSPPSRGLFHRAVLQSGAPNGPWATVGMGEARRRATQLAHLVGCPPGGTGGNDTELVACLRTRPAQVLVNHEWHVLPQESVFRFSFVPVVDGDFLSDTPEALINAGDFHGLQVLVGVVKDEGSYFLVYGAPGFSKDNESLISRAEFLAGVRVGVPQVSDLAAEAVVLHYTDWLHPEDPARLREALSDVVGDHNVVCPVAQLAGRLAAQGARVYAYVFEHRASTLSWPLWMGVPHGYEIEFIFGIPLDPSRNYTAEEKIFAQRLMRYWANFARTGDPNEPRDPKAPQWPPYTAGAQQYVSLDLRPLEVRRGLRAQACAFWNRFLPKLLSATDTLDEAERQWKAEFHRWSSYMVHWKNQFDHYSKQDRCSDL

| SMILES | IC50 [1] | IC50 [2] |
| --- | --- | --- |
| CCN(Cc1ccccc1)Cc1ccc(C(=O)c2ccc(OC)c(OC)c2)cc1 | 0.57 µM | 71.5 µM |
| COc1ccc(C(=O)c2ccc(CN(C)Cc3cccc(C)c3)cc2)cc1OC | 1.65 µM | 125 µM |
| COc1ccc(C(=O)c2ccc(/C=C/CN(C)Cc3ccccc3)cc2)cc1OC | 2.1 µM | 44 µM |
| COc1ccc(C(=O)c2ccc(CN(C)Cc3ccccc3)cc2)cc1F | 1.57 µM | > 100 µM |
| COc1ccc(C(=O)c2ccc(CN(C)Cc3cccc([N+](=O)[O-])c3)cc2)cc1OC | 4.27 µM | > 100 µM |
| COc1ccc(C(=O)c2ccc(CN(C)Cc3ccccc3)cc2)cc1OC | 0.46 µM | 60.7 µM |
| COc1ccc(C(=O)c2ccc(CN3CCOCC3)cc2)cc1OC | 345 µM | – |
| COc1ccc(C(=O)c2ccc(CN(C)CCN(C)C)cc2)cc1OC | 2.37 µM | 88.8 µM |
| C#CCN(C)Cc1ccc(C(=O)c2ccc(OC)c(OC)c2)cc1 | 27.2 µM | – |
| COc1ccc(C(=O)c2ccc(CN3CCc4ccccc4C3)cc2)cc1OC | 54 µM | – |
| CN(Cc1ccccc1)Cc1ccc(C(=O)c2ccc3ccccc3c2)cc1 | 19.6 µM | – |
| COc1ccc(C(=O)c2ccc(CN(CCN(C)C)Cc3ccccc3)cc2)cc1OC | 8.64 µM | 33.2 µM |
| COc1ccc(C(=O)c2ccc(CN(CCO)Cc3ccccc3)cc2)cc1OC | 1.41 µM | 172 µM |
| COc1ccccc1CN(C)Cc1ccc(C(=O)c2ccc(OC)c(OC)c2)cc1 | 3.71 µM | 16.2 µM |
| COc1ccc(C(=O)c2ccc(CN(C)Cc3ccccc3)cc2)cc1 | 1.82 µM | > 100 µM |
| CCN(CC)Cc1ccc(C(=O)c2ccc(OC)c(OC)c2)cc1 | 36.8 µM | – |
